{
  "source": "ChEMBL document CHEMBL4823244",
  "about": "“Synthesis of norisoboldine derivatives and bioactivity assay for inducing the generation of regulatory T cells” (Bioorg Med Chem Lett, 2021)",
  "key": {"EL4": {"system": "EL4", "test": "Cytotoxicity against mouse EL4 cells assessed as effect on cell viability at 1 to 10 uM measured after 72 hrs by MTT assay", "type": "cell-based", "details": "el4, 72 h, dose 1-10 µM"}, "T-cell [1]": {"system": "T-cell", "test": "Induction of cell differentiation in anti-CD3/CD28 stimulated naive T-cells assessed as number of Treg cells at 0.3 uM measured after 72 hrs by flow cytometry analysis (reference value: 24 %)", "type": "functional"}, "T-cell [2]": {"system": "T-cell", "test": "Induction of cell differentiation in anti-CD3/CD28 stimulated naive T-cells assessed as number of Treg cells at 3 uM measured after 72 hrs by flow cytometry analysis (reference value: 24 %)", "type": "functional"}, "T-cell [3]": {"system": "T-cell", "test": "Induction of cell differentiation in anti-CD3/CD28 stimulated naive T-cells assessed as upregulation of Foxp3 mRNA expression at 1 uM measured after 72 hrs by Q-PCR analysis", "type": "functional, cell-based"}, "T-cell [4]": {"system": "T-cell", "test": "Induction of cell differentiation in anti-CD3/CD28 stimulated naive T-cells assessed as upregulation of CD4+ CD25+ cell frequency at 1 uM measured after 72 hrs by flow cytometry analysis", "type": "functional, cell-based"}, "Mus musculus [5]": {"system": "Mus musculus", "test": "Induction of Treg cell differentiation in DSS- induced ulcerative colitis mouse model assessed as increase in IL-10 mRNA level at 28 to 56 mg/kg, po administered for 10 consecutive days by Q-PCR analysis", "type": "functional, organism-based", "details": "dose 28-56 mg/kg, time 10.0 day"}, "Mus musculus [6]": {"system": "Mus musculus", "test": "Induction of Treg cell differentiation in DSS- induced ulcerative colitis mouse model assessed as increase in Foxp3 mRNA level at 28 to 56 mg/kg, po administered for 10 consecutive days by Q-PCR analysis", "type": "functional, organism-based", "details": "dose 28-56 mg/kg, time 10.0 day"}, "Mus musculus [7]": {"system": "Mus musculus", "test": "Antiinflammatory activity in DSS-induced ulcerative colitis mouse model assessed as reduction in MPO activity at 28 to 56 mg/kg, po administered for 10 consecutive days", "type": "functional, organism-based", "details": "dose 28-56 mg/kg, time 10.0 day"}, "Mus musculus [8]": {"system": "Mus musculus", "test": "Induction of Treg cell differentiation in DSS- induced ulcerative colitis mouse model assessed as number of Treg cells in spleens at 28 mg/kg, po administered for 10 consecutive days by flow cytometry analysis (Rvb= 6.49%)", "type": "functional", "details": "time 10 day"}, "Mus musculus [9]": {"system": "Mus musculus", "test": "Induction of Treg cell differentiation in DSS- induced ulcerative colitis mouse model assessed as number of Treg cells in mesenteric lymph nodes at 56 mg/kg, po administered for 10 consecutive days by flow cytometry analysis (Rvb= 7.52%)", "type": "functional", "details": "time 10 day"}, "Mus musculus [10]": {"system": "Mus musculus", "test": "Induction of Treg cell differentiation in DSS- induced ulcerative colitis mouse model assessed as number of Treg cells in colonic lamina proprias at 28 mg/kg, po administered for 10 consecutive days by flow cytometry analysis (Rvb= 7.97%)", "type": "functional", "details": "time 10 day"}, "Mus musculus [11]": {"system": "Mus musculus", "test": "Induction of Treg cell differentiation in DSS- induced ulcerative colitis mouse model assessed as number of Treg cells in spleens at 56 mg/kg, po administered for 10 consecutive days by flow cytometry analysis (Rvb= 6.49%)", "type": "functional", "details": "time 10 day"}, "T-cell [12]": {"system": "T-cell", "test": "Induction of cell differentiation in anti-CD3/CD28 stimulated naive T-cells assessed as number of Treg cells at 1 uM measured after 72 hrs by flow cytometry analysis (reference value: 24 %)", "type": "functional"}, "Mus musculus [13]": {"system": "Mus musculus", "test": "Induction of Treg cell differentiation in DSS- induced ulcerative colitis mouse model assessed as number of Treg cells in mesenteric lymph nodes at 28 mg/kg, po administered for 10 consecutive days by flow cytometry analysis (Rvb= 7.52%)", "type": "functional", "details": "time 10 day"}, "Mus musculus [14]": {"system": "Mus musculus", "test": "Antiinflammatory activity in DSS-induced ulcerative colitis mouse model assessed as reduction in DAI score at 28 to 56 mg/kg, po administered for 10 consecutive days", "type": "functional, organism-based", "details": "dose 28-56 mg/kg, time 10.0 day"}, "T-cell [15]": {"system": "T-cell", "test": "Induction of cell differentiation in anti-CD3/CD28 stimulated naive T-cells assessed as upregulation of Foxp3 mRNA expression at 0.3 to 3 uM measured after 72 hrs by Q-PCR analysis", "type": "functional, cell-based", "details": "dose 0.3-3 µM"}, "Mus musculus [16]": {"system": "Mus musculus", "test": "Antiinflammatory activity in DSS-induced ulcerative colitis mouse model assessed as protection against colon destruction at 28 to 56 mg/kg, po administered for 10 consecutive days by HE staining based histopathological analysis", "type": "functional, organism-based", "details": "dose 28-56 mg/kg, time 10.0 day"}, "Mus musculus [17]": {"system": "Mus musculus", "test": "Antiinflammatory activity in DSS-induced ulcerative colitis mouse model assessed as protection against inflammation of colons at 28 to 56 mg/kg, po administered for 10 consecutive days by HE staining based histopathological analysis", "type": "functional, organism-based", "details": "dose 28-56 mg/kg, time 10.0 day"}, "Mus musculus [18]": {"system": "Mus musculus", "test": "Induction of Treg cell differentiation in DSS- induced ulcerative colitis mouse model assessed as number of Treg cells in colonic lamina proprias at 56 mg/kg, po administered for 10 consecutive days by flow cytometry analysis (Rvb= 7.97%)", "type": "functional", "details": "time 10 day"}, "Mus musculus [19]": {"system": "Mus musculus", "test": "Antiinflammatory activity in DSS-induced ulcerative colitis mouse model assessed as rescue of colon length shortening at 28 to 56 mg/kg, po administered for 10 consecutive days", "type": "functional, organism-based", "details": "dose 28-56 mg/kg, time 10.0 day"}, "T-cell [20]": {"system": "T-cell", "test": "Induction of cell differentiation in anti-CD3/CD28 stimulated naive T-cells assessed as upregulation of IL-10 mRNA expression at 0.3 to 3 uM measured after 72 hrs by Q-PCR analysis", "type": "functional, cell-based", "details": "dose 0.3-3 µM"}, "T-cell [21]": {"system": "T-cell", "test": "Induction of cell differentiation in anti-CD3/CD28 stimulated naive T-cells assessed as upregulation of IL-10 mRNA expression at 0.2 mM measured after 72 hrs by Q-PCR analysis", "type": "functional, cell-based"}, "T-cell [22]": {"system": "T-cell", "test": "Induction of cell differentiation in anti-CD3/CD28 stimulated naive T-cells assessed as number of Treg cells at 0.2 mM measured after 72 hrs by flow cytometry analysis (reference value: 24 %)", "type": "functional"}, "T-cell [23]": {"system": "T-cell", "test": "Induction of cell differentiation in anti-CD3/CD28 stimulated naive T-cells assessed as upregulation of Foxp3 expression at 0.2 mM measured after 72 hrs by Q-PCR analysis", "type": "functional, cell-based"}, "T-cell [24]": {"system": "T-cell", "test": "Induction of cell differentiation in anti-CD3/CD28 stimulated naive T-cells assessed as upregulation of CD4+ CD25+ cell frequency at 0.2 mM measured after 72 hrs by flow cytometry analysis", "type": "functional, cell-based"}},
  "note": "Activity calls are given as the source filed them. No cut-off for these calls is given here.",
  "data": [
    {"smiles": "COc1cc2c(cc1O)CC1c3c(cc(OC)c(O)c3-2)CCN1C(=O)c1ccc(F)cc1", "note": "(stereo not given)", "values": [
      {"measurement": "Activity", "setting": "EL4", "result": "Non-Toxic"}
    ]},
    {"smiles": "COc1cc2c(cc1O)CC1c3c(cc(OC)c(O)c3-2)CCN1C(=O)c1cc(C)cc(C)c1", "note": "(stereo not given)", "values": [
      {"measurement": "Activity", "setting": "T-cell [1]", "result": 25.2, "unit": "%"},
      {"measurement": "Activity", "setting": "T-cell [2]", "result": 36, "unit": "%"},
      {"measurement": "Activity", "setting": "T-cell [3]", "result": "Active"},
      {"measurement": "Activity", "setting": "T-cell [4]", "result": "inactive"},
      {"measurement": "Activity", "setting": "Mus musculus [5]", "result": "Active"},
      {"measurement": "Activity", "setting": "Mus musculus [6]", "result": "Active"},
      {"measurement": "Activity", "setting": "Mus musculus [7]", "result": "Active"},
      {"measurement": "Activity", "setting": "Mus musculus [8]", "result": 7.03, "unit": "%"},
      {"measurement": "Activity", "setting": "EL4", "result": "Non-Toxic"},
      {"measurement": "Activity", "setting": "Mus musculus [9]", "result": 12.32, "unit": "%"},
      {"measurement": "Activity", "setting": "Mus musculus [10]", "result": 13.57, "unit": "%"},
      {"measurement": "Activity", "setting": "Mus musculus [11]", "result": 7.87, "unit": "%"},
      {"measurement": "Activity", "setting": "T-cell [12]", "result": 31.1, "unit": "%"},
      {"measurement": "Activity", "setting": "Mus musculus [13]", "result": 11.55, "unit": "%"},
      {"measurement": "Activity", "setting": "Mus musculus [14]", "result": "Active"},
      {"measurement": "Activity", "setting": "T-cell [15]", "result": "Active"},
      {"measurement": "Activity", "setting": "Mus musculus [16]", "result": "Active"},
      {"measurement": "Activity", "setting": "Mus musculus [17]", "result": "Active"},
      {"measurement": "Activity", "setting": "Mus musculus [18]", "result": 14.5, "unit": "%"},
      {"measurement": "Activity", "setting": "Mus musculus [19]", "result": "Active"},
      {"measurement": "Activity", "setting": "T-cell [20]", "result": "Active"}
    ]},
    {"smiles": "COc1cc2c(cc1O)CC1c3c(cc(OC)c(O)c3-2)CCN1Cc1ccccc1", "note": "(stereo not given)", "values": [
      {"measurement": "Activity", "setting": "EL4", "result": "Non-Toxic"}
    ]},
    {"smiles": "COc1cc2c(cc1O)CC1c3c(cc(OC)c(O)c3-2)CCN1C(=O)c1cc(OC)c(OC)c(OC)c1", "note": "(stereo not given)", "values": [
      {"measurement": "Activity", "setting": "EL4", "result": "Non-Toxic"}
    ]},
    {"smiles": "COc1cc2c(cc1O)CC1c3c(cc(OC)c(O)c3-2)CCN1Cc1ccc(C#N)cc1", "note": "(stereo not given)", "values": [
      {"measurement": "Activity", "setting": "EL4", "result": "Non-Toxic"}
    ]},
    {"smiles": "COc1cc2c(cc1O)CC1c3c(cc(OC)c(O)c3-2)CCN1Cc1cc(C)cc(C)c1", "note": "(stereo not given)", "values": [
      {"measurement": "Activity", "setting": "EL4", "result": "Non-Toxic"}
    ]},
    {"smiles": "COc1cccc(CN2CCc3cc(OC)c(O)c4c3C2Cc2cc(O)c(OC)cc2-4)c1", "note": "(stereo not given)", "values": [
      {"measurement": "Activity", "setting": "EL4", "result": "Non-Toxic"}
    ]},
    {"smiles": "COc1cc2c(cc1O)CC1c3c(cc(OC)c(O)c3-2)CCN1Cc1ccc(C)cc1", "note": "(stereo not given)", "values": [
      {"measurement": "Activity", "setting": "EL4", "result": "Non-Toxic"}
    ]},
    {"smiles": "COc1ccc(C(=O)N2CCc3cc(OC)c(O)c4c3C2Cc2cc(O)c(OC)cc2-4)cc1", "note": "(stereo not given)", "values": [
      {"measurement": "Activity", "setting": "EL4", "result": "Non-Toxic"}
    ]},
    {"smiles": "CCCC(=O)[O-].[Na+]", "note": "[SODIUM BUTYRATE]", "values": [
      {"measurement": "Activity", "setting": "T-cell [21]", "result": "Active"},
      {"measurement": "Activity", "setting": "T-cell [22]", "result": 32.4, "unit": "%"},
      {"measurement": "Activity", "setting": "EL4", "result": "Non-Toxic"},
      {"measurement": "Activity", "setting": "T-cell [23]", "result": "Active"},
      {"measurement": "Activity", "setting": "T-cell [24]", "result": "Active"}
    ]},
    {"smiles": "COc1cc2c(cc1O)CC1c3c(cc(OC)c(O)c3-2)CCN1C(=O)c1ccccc1", "note": "(stereo not given)", "values": [
      {"measurement": "Activity", "setting": "EL4", "result": "Non-Toxic"}
    ]}
  ]
}
